The test system of experiment [1] is E. coli MG1655 (sensitive strain). Put plainly: microbe, parasite or virus in culture. Conditions: Escherichia coli, MG1655, 5 h, read-out: zone of inhibition, segment of the E-test strip (minimal inhibitory concentration). The procedure:
This minimal inhibitory concentration is based on the visualization of zones with no growth, called the zone of inhibition. The zone of inhibition is traditionally measured by the naked eye after an overnight growth.
Experimental Methods: The strains, used in the example and described in Example 13, were diluted to 10^6 CFU/ml and plated on TSA media. […] The microcolonies growing on or near the test strip were imaged using microcolony autofluorescence and non-magnified large area imaging as in previous examples. After imaging, the plates were allowed to incubate overnight.

The subject of experiment [2] is E. coli MG1655/pLafr I (resistant strain). Put plainly: E-test strip susceptibility test with autofluorescent microcolony imaging. The experiment is classed as cell-based. Conditions: E-test strip 0.016-256 μg tetracycline, TSA, 5 hours at 37° C. Here is the method:
After imaging, the plates were allowed to incubate overnight.

Converted amounts (≈) assume the structure as drawn.

On to `CN(C)[C@@H]1C(O)=C(C(N)=O)C(=O)[C@@]2(O)C(O)=C3C(=O)c4c(O)cccc4[C@@](C)(O)[C@H]3C[C@@H]12` [tetracycline], for which, in experiment [1], the MIC was around 2 µg/mL (≈ 4.5 µM). Further, the “segment of the E-test strip near which the strain grows” value in experiment [2] is around 256 µg/mL.

The values above are taken from patent US7582415B2, “Rapid detection of replicating cells” (priority 2001, dated 2009).
